# In publication PMC8409965, “Three-component Castagnoli-Cushman reaction with ammonium acetate delivers 2-unsubstituted isoquinol-1-ones as potent inhibitors of poly(ADP-ribose) polymerase (PARP)” (Journal of Enzyme Inhibition and Medicinal Chemistry, 2021):
# Read-outs that look alike come from different tables or passages of the source.
# Columns and labels:
# PARP2 [1] = target: T1, PARP2 (Homo sapiens, UniProt Q9UGN5); set-up: method as in PMID 34482781; conditions: values greater than 1.0 indicate selectivity towards PARP2; cited from earlier work
# T1 construct: purchased BPS Bioscience (San Diego, CA)
# T1 sequence (Q9UGN5 whole entry): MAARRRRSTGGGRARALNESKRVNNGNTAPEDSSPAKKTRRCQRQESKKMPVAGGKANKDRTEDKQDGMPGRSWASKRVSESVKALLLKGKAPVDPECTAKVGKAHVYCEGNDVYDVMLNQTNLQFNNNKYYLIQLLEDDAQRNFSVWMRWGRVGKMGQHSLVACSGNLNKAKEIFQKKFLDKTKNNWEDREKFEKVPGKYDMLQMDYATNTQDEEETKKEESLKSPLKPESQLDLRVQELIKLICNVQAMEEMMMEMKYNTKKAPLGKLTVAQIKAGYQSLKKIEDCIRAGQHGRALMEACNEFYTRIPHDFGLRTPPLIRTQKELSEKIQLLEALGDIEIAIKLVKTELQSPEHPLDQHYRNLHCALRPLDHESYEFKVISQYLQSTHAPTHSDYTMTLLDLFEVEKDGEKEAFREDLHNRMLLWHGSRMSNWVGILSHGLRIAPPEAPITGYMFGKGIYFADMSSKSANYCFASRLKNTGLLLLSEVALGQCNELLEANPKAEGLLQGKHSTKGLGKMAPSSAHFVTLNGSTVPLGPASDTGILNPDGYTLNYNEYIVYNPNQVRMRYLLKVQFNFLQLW
# PARP2 [2] = target: T1, PARP2; assay: PARP2 colorimetric activity assay kit (BPS Bioscience); assay type: biochemical; conditions: for IC50: dose-response, mean ± SD, n = 3; for SI (selectivity index) IC50(PARP1)/IC50(PARP2): values greater than 1.0 indicate selectivity towards PARP2
# PARP1 [3] = target: T2, PARP1 (Homo sapiens, UniProt P09874); assay: PARP1 colorimetric activity assay kit (BPS Bioscience); assay type: biochemical; conditions: dose-response, mean ± SD, n = 3
# T2 construct: purchased BPS Bioscience (San Diego, CA)
# T2 sequence (P09874 whole entry): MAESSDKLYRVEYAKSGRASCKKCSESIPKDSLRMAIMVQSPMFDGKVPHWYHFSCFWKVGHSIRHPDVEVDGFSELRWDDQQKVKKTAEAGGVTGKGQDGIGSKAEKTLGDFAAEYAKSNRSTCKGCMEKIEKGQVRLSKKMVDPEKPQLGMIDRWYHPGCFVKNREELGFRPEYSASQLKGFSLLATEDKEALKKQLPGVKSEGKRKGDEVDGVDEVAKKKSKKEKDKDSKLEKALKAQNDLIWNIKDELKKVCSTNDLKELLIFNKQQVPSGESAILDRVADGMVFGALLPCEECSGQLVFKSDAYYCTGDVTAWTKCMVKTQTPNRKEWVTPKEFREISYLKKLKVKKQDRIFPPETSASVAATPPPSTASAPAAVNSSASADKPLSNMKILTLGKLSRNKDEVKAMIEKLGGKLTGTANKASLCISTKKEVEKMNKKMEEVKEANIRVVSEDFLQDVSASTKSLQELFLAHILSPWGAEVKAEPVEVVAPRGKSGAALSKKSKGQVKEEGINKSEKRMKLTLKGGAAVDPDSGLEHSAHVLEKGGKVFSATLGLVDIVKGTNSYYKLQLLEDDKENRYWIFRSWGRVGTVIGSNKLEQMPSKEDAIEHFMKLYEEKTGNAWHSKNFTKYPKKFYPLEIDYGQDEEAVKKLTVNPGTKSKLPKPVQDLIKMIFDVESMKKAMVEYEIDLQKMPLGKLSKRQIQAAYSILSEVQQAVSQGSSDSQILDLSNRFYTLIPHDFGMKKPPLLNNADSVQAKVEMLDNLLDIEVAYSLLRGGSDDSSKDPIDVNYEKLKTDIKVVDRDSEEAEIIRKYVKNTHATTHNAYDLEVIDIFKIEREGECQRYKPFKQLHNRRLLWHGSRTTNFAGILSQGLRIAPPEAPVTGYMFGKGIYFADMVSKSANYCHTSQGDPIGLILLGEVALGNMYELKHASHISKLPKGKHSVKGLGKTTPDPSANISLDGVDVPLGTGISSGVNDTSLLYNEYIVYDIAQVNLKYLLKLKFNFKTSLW
# PARP1 [4] = target: T2, PARP1; assay: as above; assay type: biochemical; conditions: 1 µM concentration of the inhibitor, mean ± SD, n = 3
# Description: The initial screening was performed against PARP1 at 1 µM concentration of each compound, in triplicate (n = 3) measurements.
# [5] = Stability in the presence of human liver microsomes; assay type: in vitro ADME
# [6] = Stability in human plasma; assay type: in vitro ADME; conditions: after incubation (4 h) with human plasma
# Plasma protein binding = assay type: in vitro ADME
# [7] = Solubility in pH 7.4 phosphate buffer; assay type: physicochemical; conditions: aqueous buffer; pH 7.4 0.01 M phosphate buffer solution
# [8] = Stability in the presence of hepatic S9 fraction; assay type: in vitro ADME
SMILES,IC50 (PARP2 [2]) [nM],SI (selectivity index) IC50(PARP1)/IC50(PARP2) (PARP2 [2]),IC50 (PARP1 [3]) [nM],inhibition at 1 µM (PARP1 [4]) [%],further results
O=C1NCC(C(=O)N2CCC(N3CCCCC3)CC2)c2ccccc21 (stereo not shown) [Compound 1a],,,,,SI (selectivity index) IC50(PARP1)/IC50(PARP2) (PARP2 [1]): 2.23
O=C1N[C@H](c2ccccc2)[C@@H](C(=O)N2CCC(N3CCCCC3)CC2)c2ccccc21 [Compound 2a],69.5 ± 12.8,1.26,87.9 ± 10.2,,
O=C1N[C@H](c2ccc(F)cc2)[C@@H](C(=O)N2CCC(N3CCCCC3)CC2)c2ccccc21 [Compound 2b],39.9 ± 7.3,1.39,55.4 ± 8.8,,
CC[C@H]1NC(=O)c2ccccc2[C@@H]1C(=O)N1CCC(N2CCCCC2)CC1 [Compound 2c],11 ± 2.2,4.05,44.6 ± 5.6,,
CC(C)[C@H]1NC(=O)c2ccccc2[C@@H]1C(=O)N1CCC(N2CCCCC2)CC1 [Compound 2d],,,160 ± 18.6,,
O=C1N[C@H](C2CC2)[C@@H](C(=O)N2CCC(N3CCCCC3)CC2)c2ccccc21 [Compound 2e],18.3 ± 4.5,1.44,26.4 ± 4.1,,
CC(C)(C)[C@H]1NC(=O)c2ccccc2[C@@H]1C(=O)N1CCC(N2CCCCC2)CC1 [Compound 2f],,,,24.1 ± 6,
CC(C)C[C@H]1NC(=O)c2ccccc2[C@@H]1C(=O)N1CCC(N2CCCCC2)CC1 [Compound 2g],105 ± 20.8,0.83,87 ± 8.3,,
CC1(C)NC(=O)c2ccccc2[C@@H]1C(=O)N1CCC(N2CCCCC2)CC1 [Compound 2h],,,,4 ± 7.4,
O=C1NC2(CCCCC2)[C@@H](C(=O)N2CCC(N3CCCCC3)CC2)c2ccccc21 [Compound 2i],,,,12.1 ± 7.2,
O=C1NC2(CCOCC2)[C@@H](C(=O)N2CCC(N3CCCCC3)CC2)c2ccccc21 [Compound 2j],,,,5.1 ± 6.6,
O=C1NC2(CCCC2)[C@@H](C(=O)N2CCC(N3CCCCC3)CC2)c2ccccc21 [Compound 2k],,,,10.6 ± 9.7,
O=C1N[C@H](C2CCCC2)[C@@H](C(=O)N2CCC(N3CCCCC3)CC2)c2ccccc21 [Compound 2l],> 500,,> 500,,
C[C@H]1NC(=O)c2ccccc2[C@@H]1C(=O)N1CCC(N2CCCCC2)CC1 [Compound 2m],29.2 ± 3.4,3.28,95.7 ± 17.7,,
"O=C1NC(C2CC2)C(C(=O)N2CCC(N3CCCCC3)CC2)c2ccc(F)cc21 (stereo not shown) [Compound 6, 4-([1,4′-bipiperidine]-1′-carbonyl)-3-cyclopropyl-7-fluoro-3,4-dihydroisoquinolin-1(2H)-one]",4.3 ± 0.5,5.1,22 ± 3.2,,Stability HLM [5]: 3.8 µL/min/mg; Stability Plasma (% compound remaining) [6]: 100%; PPB (plasma protein binding) (Plasma protein binding): 71.0 % bound; solubility [7]: > 100 µM; Stability S9 [8]: 0.1 µL/min/mg
"O=C(c1cc(Cc2n[nH]c(=O)c3ccccc23)ccc1F)N1CCN(C(=O)C2CC2)CC1 [Olaparib, reference compound]",,,,,Stability HLM [5]: 15 µL/min/mg; Stability Plasma (% compound remaining) [6]: 100%; PPB (plasma protein binding) (Plasma protein binding): 90.2 % bound; solubility [7]: > 100 µM; Stability S9 [8]: 1.1 µL/min/mg
